In paper PMC7486443, “Generation of Phenothiazine with Potent Anti-TLK1 Activity for Prostate Cancer Therapy” (iScience, 2020):

Experiments:
TTK = TTK (Homo sapiens, UniProt P33981); test: Kinomescan SCANMAX panel at […]; format: binding
AAK1 = AAK1 (Homo sapiens, UniProt Q2M2I8); test: biochemical; design: DiscoverX KINOMEscan scanMAX competition binding panel, single concentration, percent of control; remaining binding: dose or concentration left out as unconfirmed; details: KINOMEscan binding, percent of control; read-out: Table S4_SCANMAX REPORT - related to Fig. 1 / Percent Control
From the text: (§1) Certain PTH are potent inhibitors of TLK1 ([Ronald et al., 2013]), and by inference TLK2, as these proteins must homo- and hetero-dimerize for full activation ([Mortuza et al., 2018]), in addition to being highly similar in sequence and structure, and thus similarly targetable. […] Two noteworthy observations are that PTHs are structurally different from many known ATP competitive inhibitors, and that J54 was carefully designed based on considerations reported previously for the THD—the Kinomescan has confirmed that J54 is specific to TLKs. We should point out that although PTH were the first reported inhibitors of TLKs ([Ronald et al., 2013]), other inhibitors particularly of TLK2 have since been reported ([Kim et al., 2016]), some based on structure docking ([Mortuza et al., 2018]), although neither their potency and effects in vivo nor their potential off-target effects have not been reported as they were selected from libraries of kinase inhibitors. Supplementary file mmc2.xlsx: Table S4. SCANMAX Table, Related to Figure 1 Kinomescan of J54 inhibitory activity on human kinases.

[1] = molecular target: T1, ABL1(F317L)-phosphorylated (Homo sapiens, UniProt P00519, F317L); test: biochemical; design: DiscoverX KINOMEscan scanMAX competition binding panel, single concentration, percent of control; remaining binding: dose or concentration left out as unconfirmed; details: KINOMEscan binding, percent of control; read-out: Table S4_SCANMAX REPORT - related to Fig. 1 / Percent Control
T1 construct: phosphorylated
From the text: as §1

BRAF(V600E) = BRAF(V600E) (Homo sapiens, UniProt P15056, V600E); test: biochemical; design: DiscoverX KINOMEscan scanMAX competition binding panel, single concentration, percent of control; remaining binding: dose or concentration left out as unconfirmed; details: KINOMEscan binding, percent of control; read-out: Table S4_SCANMAX REPORT - related to Fig. 1 / Percent Control
From the text: as §1

DCAMKL3 = molecular target: T2, DCAMKL3 (Homo sapiens, UniProt Q9C098); test: biochemical; design: DiscoverX KINOMEscan scanMAX competition binding panel, single concentration, percent of control; remaining binding: dose or concentration left out as unconfirmed; details: KINOMEscan binding, percent of control; read-out: Table S4_SCANMAX REPORT - related to Fig. 1 / Percent Control
T2 construct: gene DCLK3
From the text: as §1

EGFR(L858R) = EGFR(L858R) (Homo sapiens, UniProt P00533, L858R); test: biochemical; design: DiscoverX KINOMEscan scanMAX competition binding panel, single concentration, percent of control; remaining binding: dose or concentration left out as unconfirmed; details: KINOMEscan binding, percent of control; read-out: Table S4_SCANMAX REPORT - related to Fig. 1 / Percent Control
From the text: as §1

IKK-beta = molecular target: T3, IKK-beta (Homo sapiens, UniProt O14920); test: biochemical; design: DiscoverX KINOMEscan scanMAX competition binding panel, single concentration, percent of control; remaining binding: dose or concentration left out as unconfirmed; details: KINOMEscan binding, percent of control; read-out: Table S4_SCANMAX REPORT - related to Fig. 1 / Percent Control
T3 construct: gene IKBKB
From the text: as §1

MYLK2 = MYLK2 (Homo sapiens, UniProt Q9H1R3); test: biochemical; design: DiscoverX KINOMEscan scanMAX competition binding panel, single concentration, percent of control; remaining binding: dose or concentration left out as unconfirmed; details: KINOMEscan binding, percent of control; read-out: Table S4_SCANMAX REPORT - related to Fig. 1 / Percent Control
From the text: as §1

NDR2 = molecular target: T4, NDR2 (Homo sapiens, UniProt Q9Y2H1); test: biochemical; design: DiscoverX KINOMEscan scanMAX competition binding panel, single concentration, percent of control; remaining binding: dose or concentration left out as unconfirmed; details: KINOMEscan binding, percent of control; read-out: Table S4_SCANMAX REPORT - related to Fig. 1 / Percent Control
T4 construct: gene STK38L
From the text: as §1

PIK3C2G = PIK3C2G (Homo sapiens, UniProt O75747); test: biochemical; design: DiscoverX KINOMEscan scanMAX competition binding panel, single concentration, percent of control; remaining binding: dose or concentration left out as unconfirmed; details: KINOMEscan binding, percent of control; read-out: Table S4_SCANMAX REPORT - related to Fig. 1 / Percent Control
From the text: as §1

RAF1 = RAF1 (Homo sapiens, UniProt P04049); test: biochemical; design: DiscoverX KINOMEscan scanMAX competition binding panel, single concentration, percent of control; remaining binding: dose or concentration left out as unconfirmed; details: KINOMEscan binding, percent of control; read-out: Table S4_SCANMAX REPORT - related to Fig. 1 / Percent Control
From the text: as §1

SLK = SLK (Homo sapiens, UniProt Q9H2G2); test: biochemical; design: DiscoverX KINOMEscan scanMAX competition binding panel, single concentration, percent of control; remaining binding: dose or concentration left out as unconfirmed; details: KINOMEscan binding, percent of control; read-out: Table S4_SCANMAX REPORT - related to Fig. 1 / Percent Control
From the text: as §1

SRPK3 = SRPK3 (Homo sapiens, UniProt Q9UPE1); test: biochemical; design: DiscoverX KINOMEscan scanMAX competition binding panel, single concentration, percent of control; remaining binding: dose or concentration left out as unconfirmed; details: KINOMEscan binding, percent of control; read-out: Table S4_SCANMAX REPORT - related to Fig. 1 / Percent Control
From the text: as §1

TAOK2 = TAOK2 (Homo sapiens, UniProt Q9UL54); test: biochemical; design: DiscoverX KINOMEscan scanMAX competition binding panel, single concentration, percent of control; remaining binding: dose or concentration left out as unconfirmed; details: KINOMEscan binding, percent of control; read-out: Table S4_SCANMAX REPORT - related to Fig. 1 / Percent Control
From the text: as §1

TBK1 = TBK1 (Homo sapiens, UniProt Q9UHD2); test: biochemical; design: DiscoverX KINOMEscan scanMAX competition binding panel, single concentration, percent of control; remaining binding: dose or concentration left out as unconfirmed; details: KINOMEscan binding, percent of control; read-out: Table S4_SCANMAX REPORT - related to Fig. 1 / Percent Control
From the text: as §1

TLK2 = TLK2 (Homo sapiens, UniProt Q86UE8); test: biochemical; design: DiscoverX KINOMEscan scanMAX competition binding panel, single concentration, percent of control; remaining binding: dose or concentration left out as unconfirmed; details: KINOMEscan binding, percent of control; read-out: Table S4_SCANMAX REPORT - related to Fig. 1 / Percent Control
From the text: as §1

DYRK1B = DYRK1B (Homo sapiens, UniProt Q9Y463); test: biochemical; design: DiscoverX KINOMEscan scanMAX competition binding panel, single concentration, percent of control; dose or concentration left out as unconfirmed; details: KINOMEscan binding, percent of control; read-out: Table S4_SCANMAX REPORT - related to Fig. 1 / Percent Control
From the text: as §1

LTK = LTK (Homo sapiens, UniProt P29376); test: biochemical; design: DiscoverX KINOMEscan scanMAX competition binding panel, single concentration, percent of control; dose or concentration left out as unconfirmed; details: KINOMEscan binding, percent of control; read-out: Table S4_SCANMAX REPORT - related to Fig. 1 / Percent Control
From the text: as §1

STK33 = STK33 (Homo sapiens, UniProt Q9BYT3); test: biochemical; design: DiscoverX KINOMEscan scanMAX competition binding panel, single concentration, percent of control; dose or concentration left out as unconfirmed; details: KINOMEscan binding, percent of control; read-out: Table S4_SCANMAX REPORT - related to Fig. 1 / Percent Control
From the text: as §1

Sequence of TBK1 (Q9UHD2 whole entry): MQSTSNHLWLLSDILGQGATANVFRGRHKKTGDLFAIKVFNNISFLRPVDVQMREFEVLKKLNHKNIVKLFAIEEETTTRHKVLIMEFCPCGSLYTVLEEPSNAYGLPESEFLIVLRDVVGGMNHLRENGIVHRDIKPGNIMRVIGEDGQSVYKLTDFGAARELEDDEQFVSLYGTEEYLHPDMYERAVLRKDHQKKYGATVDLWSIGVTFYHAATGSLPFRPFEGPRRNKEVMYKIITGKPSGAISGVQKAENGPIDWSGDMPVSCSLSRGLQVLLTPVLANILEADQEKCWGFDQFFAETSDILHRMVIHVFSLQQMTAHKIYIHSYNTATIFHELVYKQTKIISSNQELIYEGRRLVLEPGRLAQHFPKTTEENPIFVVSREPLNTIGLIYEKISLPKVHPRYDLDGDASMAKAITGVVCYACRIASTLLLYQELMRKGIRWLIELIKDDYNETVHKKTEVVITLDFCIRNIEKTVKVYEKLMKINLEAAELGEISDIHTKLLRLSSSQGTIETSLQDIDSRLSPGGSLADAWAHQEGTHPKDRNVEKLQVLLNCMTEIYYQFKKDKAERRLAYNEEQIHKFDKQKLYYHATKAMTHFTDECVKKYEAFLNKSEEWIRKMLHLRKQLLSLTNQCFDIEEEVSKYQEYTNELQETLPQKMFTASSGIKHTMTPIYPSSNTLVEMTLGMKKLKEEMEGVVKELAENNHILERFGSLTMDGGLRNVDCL
Sequence of TAOK2 (Q9UL54 whole entry): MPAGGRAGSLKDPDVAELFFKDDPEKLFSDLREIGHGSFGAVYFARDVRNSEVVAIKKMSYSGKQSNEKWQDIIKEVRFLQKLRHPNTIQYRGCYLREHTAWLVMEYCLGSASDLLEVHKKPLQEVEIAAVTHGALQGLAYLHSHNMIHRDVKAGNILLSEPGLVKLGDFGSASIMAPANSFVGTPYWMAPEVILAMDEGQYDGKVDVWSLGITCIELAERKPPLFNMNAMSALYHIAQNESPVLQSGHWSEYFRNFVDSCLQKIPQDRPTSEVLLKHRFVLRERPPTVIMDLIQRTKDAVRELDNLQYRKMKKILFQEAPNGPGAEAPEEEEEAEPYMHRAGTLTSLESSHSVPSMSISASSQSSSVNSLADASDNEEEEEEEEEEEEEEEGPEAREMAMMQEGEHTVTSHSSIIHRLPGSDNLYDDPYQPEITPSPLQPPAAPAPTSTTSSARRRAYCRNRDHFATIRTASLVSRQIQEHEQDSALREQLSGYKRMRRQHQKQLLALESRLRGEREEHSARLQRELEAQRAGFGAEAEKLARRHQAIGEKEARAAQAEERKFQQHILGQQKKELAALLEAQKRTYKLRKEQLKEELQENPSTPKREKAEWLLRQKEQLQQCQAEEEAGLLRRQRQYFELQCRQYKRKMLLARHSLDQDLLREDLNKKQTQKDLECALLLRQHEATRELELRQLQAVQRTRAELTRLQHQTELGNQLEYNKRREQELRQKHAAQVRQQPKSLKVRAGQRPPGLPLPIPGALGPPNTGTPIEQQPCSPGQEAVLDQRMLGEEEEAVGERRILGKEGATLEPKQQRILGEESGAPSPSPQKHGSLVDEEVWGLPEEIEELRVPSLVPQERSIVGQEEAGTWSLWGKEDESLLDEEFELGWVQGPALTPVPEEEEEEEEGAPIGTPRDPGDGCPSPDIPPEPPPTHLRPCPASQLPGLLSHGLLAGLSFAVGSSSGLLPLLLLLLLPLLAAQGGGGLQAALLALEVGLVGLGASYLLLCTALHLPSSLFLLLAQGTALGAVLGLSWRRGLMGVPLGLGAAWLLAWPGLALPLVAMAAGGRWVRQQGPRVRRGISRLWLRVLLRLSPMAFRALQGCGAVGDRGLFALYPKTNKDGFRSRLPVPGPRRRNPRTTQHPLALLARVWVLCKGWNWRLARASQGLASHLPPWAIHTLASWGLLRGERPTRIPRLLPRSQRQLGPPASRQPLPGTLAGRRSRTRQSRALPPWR
T2 sequence (Q9C098 whole entry): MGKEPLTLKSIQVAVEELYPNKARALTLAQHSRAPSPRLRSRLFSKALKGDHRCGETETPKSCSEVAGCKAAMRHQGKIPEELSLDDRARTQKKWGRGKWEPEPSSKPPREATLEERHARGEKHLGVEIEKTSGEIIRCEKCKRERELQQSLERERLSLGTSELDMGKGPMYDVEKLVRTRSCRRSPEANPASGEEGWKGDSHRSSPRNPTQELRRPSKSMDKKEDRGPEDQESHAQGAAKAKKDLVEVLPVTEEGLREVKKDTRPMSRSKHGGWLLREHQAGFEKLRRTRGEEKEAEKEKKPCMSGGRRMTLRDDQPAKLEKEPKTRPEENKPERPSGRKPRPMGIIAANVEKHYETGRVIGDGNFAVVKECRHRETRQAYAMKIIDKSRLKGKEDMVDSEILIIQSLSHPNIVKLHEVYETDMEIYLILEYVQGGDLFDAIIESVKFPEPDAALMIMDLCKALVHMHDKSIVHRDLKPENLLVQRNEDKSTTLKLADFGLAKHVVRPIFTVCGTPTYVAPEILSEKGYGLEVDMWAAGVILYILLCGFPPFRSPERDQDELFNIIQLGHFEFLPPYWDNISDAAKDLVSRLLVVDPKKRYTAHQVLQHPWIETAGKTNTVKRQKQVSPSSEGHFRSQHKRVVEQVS
Sequence of SRPK3 (Q9UPE1 whole entry): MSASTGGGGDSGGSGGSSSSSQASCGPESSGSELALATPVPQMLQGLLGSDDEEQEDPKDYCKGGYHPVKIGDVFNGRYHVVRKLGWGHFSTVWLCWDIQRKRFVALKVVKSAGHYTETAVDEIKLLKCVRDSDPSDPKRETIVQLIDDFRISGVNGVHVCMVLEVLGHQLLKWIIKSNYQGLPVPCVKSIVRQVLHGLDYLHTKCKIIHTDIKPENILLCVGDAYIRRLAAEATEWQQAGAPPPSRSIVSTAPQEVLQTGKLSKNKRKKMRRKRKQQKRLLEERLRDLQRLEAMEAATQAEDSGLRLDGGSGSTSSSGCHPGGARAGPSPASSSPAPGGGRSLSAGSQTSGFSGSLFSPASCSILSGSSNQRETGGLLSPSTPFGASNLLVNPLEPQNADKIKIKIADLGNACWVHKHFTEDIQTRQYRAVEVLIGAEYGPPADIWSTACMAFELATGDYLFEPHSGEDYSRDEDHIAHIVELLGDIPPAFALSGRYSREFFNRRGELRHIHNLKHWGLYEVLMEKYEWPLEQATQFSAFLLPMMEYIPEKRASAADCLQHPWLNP
Sequence of AAK1 (Q2M2I8 whole entry): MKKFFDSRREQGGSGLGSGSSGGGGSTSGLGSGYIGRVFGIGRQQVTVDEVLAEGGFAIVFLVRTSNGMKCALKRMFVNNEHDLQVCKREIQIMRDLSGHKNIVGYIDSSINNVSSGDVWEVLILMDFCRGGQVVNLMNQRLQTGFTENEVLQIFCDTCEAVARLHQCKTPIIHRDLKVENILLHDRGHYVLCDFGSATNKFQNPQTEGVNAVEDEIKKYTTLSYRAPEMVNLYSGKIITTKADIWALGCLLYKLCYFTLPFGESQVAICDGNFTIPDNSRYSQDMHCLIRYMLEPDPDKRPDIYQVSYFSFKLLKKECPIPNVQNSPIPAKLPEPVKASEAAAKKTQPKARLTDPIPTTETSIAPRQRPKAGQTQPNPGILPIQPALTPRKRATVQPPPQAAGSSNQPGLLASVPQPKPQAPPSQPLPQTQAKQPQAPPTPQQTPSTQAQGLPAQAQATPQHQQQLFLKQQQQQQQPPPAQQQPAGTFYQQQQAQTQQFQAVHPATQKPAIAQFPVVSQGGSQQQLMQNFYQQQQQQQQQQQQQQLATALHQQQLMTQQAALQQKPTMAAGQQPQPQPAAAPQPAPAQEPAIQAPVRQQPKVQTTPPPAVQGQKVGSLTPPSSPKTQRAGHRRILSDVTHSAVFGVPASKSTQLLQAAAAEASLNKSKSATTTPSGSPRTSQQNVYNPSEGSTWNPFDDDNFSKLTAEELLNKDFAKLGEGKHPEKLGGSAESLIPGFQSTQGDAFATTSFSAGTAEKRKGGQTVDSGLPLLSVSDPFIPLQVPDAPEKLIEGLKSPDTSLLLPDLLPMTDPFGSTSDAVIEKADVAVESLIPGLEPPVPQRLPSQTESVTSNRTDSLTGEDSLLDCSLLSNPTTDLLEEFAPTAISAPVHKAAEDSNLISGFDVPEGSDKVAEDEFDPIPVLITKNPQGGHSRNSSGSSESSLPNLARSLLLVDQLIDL
Sequence of TLK2 (Q86UE8 whole entry): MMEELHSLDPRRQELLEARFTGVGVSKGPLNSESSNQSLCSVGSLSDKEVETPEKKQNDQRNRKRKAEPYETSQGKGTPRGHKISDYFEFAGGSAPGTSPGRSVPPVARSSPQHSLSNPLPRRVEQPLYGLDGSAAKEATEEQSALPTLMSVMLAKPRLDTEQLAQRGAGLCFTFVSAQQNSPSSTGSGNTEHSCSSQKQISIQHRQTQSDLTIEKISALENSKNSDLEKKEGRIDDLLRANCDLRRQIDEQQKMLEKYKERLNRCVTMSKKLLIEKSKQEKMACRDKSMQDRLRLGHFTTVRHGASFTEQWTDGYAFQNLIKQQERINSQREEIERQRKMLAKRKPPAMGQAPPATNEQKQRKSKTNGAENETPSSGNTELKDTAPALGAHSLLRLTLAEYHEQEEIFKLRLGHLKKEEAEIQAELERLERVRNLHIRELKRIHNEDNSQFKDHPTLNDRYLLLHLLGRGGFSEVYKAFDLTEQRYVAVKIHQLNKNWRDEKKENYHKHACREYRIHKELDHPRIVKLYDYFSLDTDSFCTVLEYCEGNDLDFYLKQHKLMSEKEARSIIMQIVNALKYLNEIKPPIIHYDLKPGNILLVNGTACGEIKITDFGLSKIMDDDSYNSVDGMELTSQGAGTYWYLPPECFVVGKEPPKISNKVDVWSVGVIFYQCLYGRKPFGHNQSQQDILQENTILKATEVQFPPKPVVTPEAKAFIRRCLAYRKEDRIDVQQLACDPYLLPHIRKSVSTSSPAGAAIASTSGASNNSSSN

c1ccc2c(c1)Sc1ccccc1N2CCN1CCOCC1 [J54]
Kinomescan SCANMAX panel at 15 μM (TTK): little inhibition of all other kinases with the exception of TTK
remaining binding (AAK1): 80%
remaining binding [1]: 99%
remaining binding (BRAF(V600E)): 100%
remaining binding (DCAMKL3): 95%
remaining binding (EGFR(L858R)): 92%
remaining binding (IKK-beta): 100%
remaining binding (MYLK2): 74%
remaining binding (NDR2): 100%
remaining binding (PIK3C2G): 74%
remaining binding (RAF1): 100%
remaining binding (SLK): 100%
remaining binding (SRPK3): 100%
remaining binding (TAOK2): 100%
remaining binding (TBK1): 89%
remaining binding (TLK2): 23%
remaining binding (DYRK1B): 54%
remaining binding (LTK): 100%
remaining binding (STK33): 100%
